Measurements: patent US20260265199A1, “CRYSTALLINE FORMS OF (R)-2-AMINO-5-(4-(2-(3,5-DIFLUOROPHENYL)-2-HYDROXYACETAMIDO)-2-METHYLPHENYL)-N-ISOPROPYLNICOTINAMIDE AND METHODS FOR USING THE SAME” (HIBERCELL, INC., priority 2023, published 2026)
Where a name gives a salt, the structure may show the parent alone. Read-outs that look alike come from different tables or passages of the source.

Key:
Type in all cases: physicochemical
[1] = Dynamic vapor sorption (DVS Intrinsic, 25° C., 0-90% RH)
Protocol: Moisture sorption/desorption data were collected on a DVS Intrinsic (SMS, UK). The sample was placed into a tared sample chamber and automatically weighed. The sample was dried at 40° C. until the dm/dt was less than 0.002% and cooled to 25° C. Set the instrument parameters as below. • Step time (min): 60 min • Sample temperature: 25° C. • Cycle: Full cycle • Adsorption: 0, 10, 20, 30, 40, 50, 60, 70, 80, 90 • Desorption: 80, 70, 60, 50, 40, 30, 20, 10, 0 • Save Data Rate: 5 s • Total flow rate: 200 sccm • Post experiment total flow: 200 sccm
The associated DVS isotherm plot of Form A of the hemi-fumarate salt is depicted in FIG. 10.

[2] = Solubility in water and biologically relevant media (SGF, FeSSIF, FaSSIF), HPLC, pH, XRPD; settings: 37° C.; for XRPD of the filter cake: 24 h
Protocol: HPLC analysis was performed with an Agilent HPLC 1260 series instrument.
The solubility of the Form A of the hemi-fumarate salt was evaluated in water and biologically relevant media, SGF, FeSSIF, and FaSSIF. About 10 mg of the sample was weighed into sample vials and then 2 mL of three bio-relevant media and water were added to each respective sample to make suspensions. All suspensions were shaken at 37° C. with 200 rpm. […] The XRPD pattern from the solubility test of the Form A of the hemi-fumarate salt of the compound of formula (I) is depicted in FIG. 12.

[3] = Physical stability under high humidity (92.5% RH); settings: 11 days
Protocol: The physical stability of the Form A of the hemi-fumarate salt was evaluated under high humidity (92.5% RH) for 11 days.

[4] = Solubility of hemi-fumarate Form A by visual assessment upon solvent addition
Protocol: The solubility of the Form A of the hemi-fumarate salt was evaluated by visual assessment of samples upon solvent addition, employing organic solvents and water. Among the solvents, the Form A of the hemi-fumarate salt had the highest solubility in THF, MeOH, EtOH and acetone (>50 mg/mL).

[5] = Slurry study of Form A of the hemi-fumarate salt (XRPD of solids); settings: room temperature, three days (footnote *)
[6] = Mechanical treatment (manual grinding) of Form A of the hemi-fumarate salt
Protocol: Appropriate amount of the Form A of the hemi-fumarate salt was ground for about two and five minutes manually and the samples were analyzed by XRPD (Example 1, XRPD). […] The crystallinity became low after grinding for five minutes. Solubility of the Form A of the Hemi-Fumarate Salt of the Compound of Formula (I) in Biologically Relevant Media

[7] = Slurry study of Form A of the hemi-fumarate salt (XRPD of solids)
Protocol: XRPD patterns of samples were collected using with an X-ray diffractometer (Bruker D8 advance). The system was equipped with LynxEye detector. Samples were scanned from 3 to 40° 2θ, at a step size 0.02° 2θ. The tube voltage and current were 40 KV and 40 mA, respectively.
Slurry studies of the Form A of the hemi-fumarate salt were conducted at room temperature for four days and at 50° C. for one day. About 10 mg to 35 mg of the Form A of the hemi-fumarate salt was slurried in different solvents at RT or 50° C. for one to four days. Solid samples were collected by filtration and analyzed by XRPD (Example 1, XRPD) at a specific time. […] The overlay of XRPD patterns from the slurry study of the Form A of the hemi-fumarate salt of the compound of formula (I) is depicted in FIG. 11.

[8] = Inter-conversion study (competitive slurry) of hemi-fumarate Form A and Form B in IPA; settings: RT and 50° C.
Protocol: Equal amount of the Form A of the hemi-fumarate salt and the Form B of the hemi-fumarate salt were added into IPA, and the suspensions were stirred at RT or 50° C. for 3 days, respectively. Residual solids were obtained and characterized. […] The overlay of the XRPD pattern from the inter-conversion study of the hemi-fumarate salt is depicted in FIG. 15.

Cc1cc(NC(=O)[C@H](O)c2cc(F)cc(F)c2)ccc1-c1cnc(N)c(C(=O)NC(C)C)c1 [Form A of the hemi-fumarate salt, (R)-2-amino-5-(4-(2-(3,5-difluorophenyl)-2-hydroxyacetamido)-2-methylphenyl)-N-isopropylnicotinamide]
Crystal form after DVS analysis [1]: did not change | Hygroscopicity (DVS) ([1]; 25° C.): slightly hygroscopic | Water uptake (DVS) ([1]; at 80% RH, 25° C.): 0.66% | pH of the filtrate ([2]; FaSSIF, 0.5 hours): 6.39 | pH of the filtrate ([2]; FaSSIF, 2 hours): 6.36 | XRPD of the filter cake ([2]; FaSSIF): exhibited dissociation into the free base Form | XRPD of the filter cake ([2]; FaSSIF, listed as Form A of the Hemi-Fumarate Salt): Changed | pH of the filtrate ([2]; FaSSIF, 24 hours): 5.57 | pH of the filtrate ([2]; FeSSIF, 0.5 hours): 5.14 | pH of the filtrate ([2]; FeSSIF, 2 hours): 4.88 | XRPD of the filter cake ([2]; FeSSIF): exhibited dissociation into the free base Form | XRPD of the filter cake ([2]; FeSSIF, listed as Form A of the Hemi-Fumarate Salt): Changed | pH of the filtrate ([2]; FeSSIF, 24 hours): 4.71 | Solubility comparison between media ([2]; SGF vs FeSSIF, FaSSIF and water): more soluble in SGF than in FeSSIF, FaSSIF, and water | pH of the filtrate ([2]; SGF, 0.5 hours): 1.12 | pH of the filtrate ([2]; SGF, 2 hours): 1.10 | XRPD of the filter cake ([2]; SGF): No XRPD pattern change was observed | pH of the filtrate ([2]; SGF, 24 hours): 1.36 | pH of the filtrate ([2]; Water, 0.5 hours): 3.77 | pH of the filtrate ([2]; Water, 2 hours): 2.97 | XRPD of the filter cake ([2]; Water): exhibited dissociation into the free base Form | XRPD of the filter cake ([2]; Water, listed as Form A of the Hemi-Fumarate Salt): Changed | pH of the filtrate ([2]; Water, 24 hours): 2.91 | solubility at 24 h ([2]; pH 1.36, simulated gastric fluid, thermodynamic from solid, SGF, 24 hours): 4370 µg/mL | solubility at 24 h ([2]; pH 2.91, thermodynamic from solid, Water, 24 hours): 81 µg/mL | solubility at 2 h ([2]; pH 2.97, thermodynamic from solid, Water, 2 hours): 81 µg/mL | solubility at 0.5 h ([2]; pH 3.77, thermodynamic from solid, Water, 0.5 hours): 10 µg/mL | solubility at 24 h ([2]; pH 4.71, thermodynamic from solid, FeSSIF, 24 hours): 41 µg/mL | solubility at 2 h ([2]; pH 4.88, thermodynamic from solid, FeSSIF, 2 hours): 149 µg/mL | solubility at 0.5 h ([2]; pH 5.14, thermodynamic from solid, FeSSIF, 0.5 hours): 214 µg/mL | solubility at 24 h ([2]; pH 5.57, thermodynamic from solid, FaSSIF, 24 hours): 29 µg/mL | solubility at 2 h ([2]; pH 6.36, thermodynamic from solid, FaSSIF, 2 hours): 16 µg/mL | solubility at 0.5 h ([2]; pH 6.39, thermodynamic from solid, FaSSIF, 0.5 hours): 22 µg/mL | solubility at 0.5 h ([2]; simulated gastric fluid, thermodynamic from solid, SGF, 0.5 hours): 4290 µg/mL | solubility at 2 h ([2]; simulated gastric fluid, thermodynamic from solid, SGF, 2 hours): 4230 µg/mL | Physical stability (form by XRPD) [3]: No form change was detected | solubility ([4]; 2-butanone, organic solvent or mixture, thermodynamic from solid, 2-butanone, read-out: Solubility): > 27500 µg/mL | solubility ([4]; Acetone): >50000 µg/mL | solubility ([4]; EtOAc, organic solvent or mixture, thermodynamic from solid, EtOAc, read-out: Solubility): > 9800 µg/mL | solubility ([4]; EtOH): >53400 µg/mL | solubility ([4]; EtOH, organic solvent or mixture, thermodynamic from solid, EtOH, read-out: Solubility): > 50000 µg/mL | solubility ([4]; IPA, organic solvent or mixture, thermodynamic from solid, IPA, read-out: Solubility): > 17800 µg/mL | solubility ([4]; IPAc, organic solvent or mixture, thermodynamic from solid, IPAc, read-out: Solubility): > 2100 µg/mL | solubility ([4]; MTBE, organic solvent or mixture, thermodynamic from solid, MTBE, read-out: Solubility): < 2200 µg/mL | solubility ([4]; MeCN, organic solvent or mixture, thermodynamic from solid, MeCN, read-out: Solubility): > 3200 µg/mL | solubility ([4]; MeOH): >62200 µg/mL | solubility ([4]; MeOH, organic solvent or mixture, thermodynamic from solid, MeOH, read-out: Solubility): > 50000 µg/mL | solubility ([4]; THF): >81800 µg/mL | solubility ([4]; THF, organic solvent or mixture, thermodynamic from solid, THF, read-out: Solubility): > 50000 µg/mL | solubility ([4]; acetone, organic solvent or mixture, thermodynamic from solid, Acetone, read-out: Solubility): > 50000 µg/mL | solubility ([4]; heptane, organic solvent or mixture, thermodynamic from solid, Heptane, read-out: Solubility): < 630 µg/mL | solubility ([4]; isobutanol, organic solvent or mixture, thermodynamic from solid, Isobutanol, read-out: Solubility): > 5800 µg/mL | solubility ([4]; toluene, organic solvent or mixture, thermodynamic from solid, Toluene, read-out: Solubility): < 960 µg/mL | solubility ([4]; water, thermodynamic from solid, Water, read-out: Solubility): < 830 µg/mL | XRPD result after slurry ([5]; Heptane): Form A* | XRPD result after slurry ([5]; IPAc): Form A* | XRPD result after slurry ([5]; Toluene): Form A* | Crystallinity after manual grinding ([6]; grinding for five minutes): became low | XRPD form after manual grinding ([6]; ground for about two and five minutes manually): remained unchanged and no new form was obtained by grinding | XRPD result after slurry ([7]; Acetone/heptane (1:4), 50° C., 1 day): Form A | XRPD result after slurry ([7]; Acetone/heptane (1:4), room temperature, 4 days): Form A | XRPD result after slurry ([7]; EtOAc, 50° C., 1 day): Form A | XRPD result after slurry ([7]; Heptane, 50° C., 1 day): Form A | XRPD result after slurry ([7]; IPAc, 50° C., 1 day): Form A | XRPD result after slurry ([7]; Isobutanol, 50° C., 1 day): Form A | XRPD result after slurry ([7]; Isobutanol, room temperature, three days (footnote *)): Form A* | XRPD result after slurry ([7]; MTBE, 50° C., 1 day): Form A | XRPD result after slurry ([7]; MTBE, room temperature, 4 days): Form A | XRPD result after slurry ([7]; MeCN, 50° C., 1 day): Form A | XRPD result after slurry ([7]; MeCN, room temperature, 4 days): Form A | XRPD result after slurry ([7]; MeOH/water (1:4), 50° C., 1 day): mixture of the Form B of the hemi-fumarate salt of the compound of formula (I) (Form B) and the free base Form of the compound of formula (I) (FBF) | XRPD result after slurry ([7]; Toluene, 50° C., 1 day): Form A | XRPD result after slurry ([7]; Water, 50° C., 1 day): mixture of the Form B of the hemi-fumarate salt of the compound of formula (I) (Form B) and the free base Form of the compound of formula (I) (FBF) | Relative stability of hemi-fumarate Form A vs Form B [8]: more stable form
